According to US20260274857A1, “CRYSTAL OF DIHYDROPYRIDINONE DERIVATIVE OR SOLVATE THEREOF” (Shionogi & Co., Ltd., priority 2022, published 2026):
Values belong to the compound of their own block, whether it stands above or below them.

Experiments:
Format in all cases: physicochemical
[1] = Powder solubility test (JP-1, JP-2, TCA/JP2); details: 37° C., 1 hour; for JP1 solubility: JP-1 solution; for TCA/JP2 solubility: JP-2 solution added with taurocholic acid; for JP2 solubility: JP-2 solution
Experimental: The solubility of the crystal of the present invention was evaluated with respect to the solubility when JP-1 solution, JP-2 solution, and JP-2 solution added with taurocholic acid (TCA/JP2) were used as a measurement medium. Evaluation was performed at a dissolved concentration (μg/mL) by an HPLC method.
About 1 mg of the crystal of the present invention was weighed in a 4 mL glass container, and 2 mL of JP-2 solution (1000 mL of water was added to 1.70 g of potassium dihydrogen phosphate and 1.775 g of anhydrous disodium hydrogen phosphate) was added to each container. The mixture was sealed with a polyethylene stopper with Teflon and silicone packing, shaken at 37° C. for 1 hour, and then filtered, and 400 μL of methanol was added to 800 μL of the filtrate to perform 1.5 fold dilution. Whether there were bubbles and precipitates was confirmed, and the compound of the crystal of the present invention was quantified using HPLC by an absolute calibration curve method to calculate the solubility.

[2] = Moisture adsorption/desorption isotherm measurement (DVS); details: 25° C.; for difference in water content between 0% RH and 95% RH: DVS
Text: The moisture adsorption/desorption isotherm measurement is a measurement method for measuring the adsorption and desorption behavior of moisture by measuring a weight change in a solid as a measurement target under each relative humidity condition.
As a basic measurement method, based on the dry weight at 0% RH (relative humidity 0%), the relative humidity is increased every 5% or 10%, and after the weight is stabilized at each relative humidity, the amount of adsorbed water can be determined from the weight increase from the reference value. Similarly, the desorption amount of water can be measured by decreasing the relative humidity every 5% or 10% from 100% RH or 95% RH.
By plotting the value of the weight change at each relative humidity, an adsorption/desorption isotherm can be obtained.
Sorption and desorption of adhesion water and crystal water are affected by particle size, crystallinity, crystal habit, and the like, so that the measurement results may slightly change.
The crystals and amorphous substances obtained in each Example were weighed in an aluminum pan, and allowed to stand at 25° C. and a relative humidity of 0%. The measurement was started after the compound was sufficiently dried and the weight was stabilized, and the weight when the relative humidity changed from 0% to 95% by 5% was recorded. Next, the weight when the relative humidity changed from 95% to 0% by 5% was recorded.
Device: DVS Advantage manufactured by Surface Measurement Systems

[3] = Test Example 2: solid stability, 40° C. 89% RH 3 months, amount of analogous substance
Experimental: The crystal and amorphous substance of the compound represented by Formula (I) obtained in Example 1 were stored (40° C., 89% RH 3M) in a hermetically sealed container at 40° C. and a relative humidity of 89% for 3 months, and subjected to a solid stability test to evaluate the amount of an analogous substance.
The crystal or amorphous substance of the compound represented by Formula (I) obtained in Example 1 was dissolved in an acetonitrile aqueous solution (acetonitrile:water=1:1) to prepare a sample solution to be exactly 500 μg/mL.
The purity and the amount of the analogous substance were measured by an area percentage method under the HPLC conditions 1 described in Test Example 1.
The results of the crystal and amorphous substance of the compound represented by Formula (I) obtained in Example 1 are described in the following table. Impurities detected at a retention time (RT, retention time) of 17.527 minutes indicate an increase amount with respect to a standard product.

[4] = Solid stability test: storage stability (amount of analogous substance by HPLC, appearance); details: temperature, temperature and humidity conditions, light irradiation; analogous substance by HPLC and appearance
Experimental: For the solid stability of the crystal of the compound represented by Formula (I) obtained in Example 1 and the crystal of the compound represented by Formula (II) obtained in Example 16, the chemical stability under temperature, temperature and humidity conditions, and light irradiation was evaluated. The proportion (%) of the analogous substance produced by an HPLC method and the change in appearance were evaluated.
About 10 mg of the crystal was accurately weighed in a 2 mL glass container with a polyethylene stopper. After the glass container was closed, the glass container was stored at 40° C. or 60° C. for 2 weeks, 1 month, 2 months, 3 months, or 6 months. A sample stored at 40° C. is referred to as a 40° C. hermetically sealed product, and a sample stored at 60° C. is referred to as a 60° C. hermetically sealed product. In a state where the glass container was opened, the glass container was stored at a relative humidity of 75±5% at 40° C. or a relative humidity of 89±5% for 2 weeks, 1 month, 2 months, 3 months or 6 months, or in the presence of silica gel at 40° C. for 1 month, 2 months, 3 months or 6 months. A sample stored at 40° C. and a relative humidity of 75±5% or 89±5% is referred to as a 40° C. and 75% relative humidity (also referred to as 40±2° C./75±5% RH) or 40° C. and 89% relative humidity (also referred to as 40±2° C./89% RH) stored product, and a sample stored in the presence of silica gel at 40° C. is referred to as a 40° C. stored product. The −40° C. hermetically sealed product was used as a standard product.
The amount of the analogous substance was measured by an area percentage method by the HPLC method under the following conditions.
HPLC Conditions 1 were used for the crystal and amorphous substance of the compound represented by Formula (I) obtained in Example 1, and HPLC conditions 2 were used for the crystal of the compound represented by Formula (II) obtained in Example 16.
• Detector: ultraviolet absorptiometer (measurement wavelength: 260 nm) • Column: YMC-Triart C18 ExRS, S-1.9 μm, 3.0×100 mm • Column temperature: constant temperature at near 40° C. • Mobile phase A: 0.1% formic acid aqueous solution • Mobile phase B: acetonitrile • Flow rate: about 0.6 mL/min • Injection amount: 3 μL • Sample cooler temperature: about 6° C. • Feed of mobile phase: The mixing ratio of mobile phase A and mobile phase B was changed as shown in Table 18 to control concentration gradient.
Column: Cortecs (2.7 μm 3.0×100 mm)
Column temperature: 40° C.
UV detection wavelength: 254 nm

JP1 solubility [1]: 59.4 µg/mL
TCA/JP2 solubility [1]: 143.1 µg/mL
JP2 solubility [1]: 74.1 µg/mL
SMILES: Cc1ccc(-n2nc3c(c2NC(=O)CS(C)(=O)=O)C(=O)NC2(CCOc4cc(F)cc(F)c42)C3)nc1 (stereo not drawn) [Compound crystal of Formula (I)]

difference in water content between 0% RH and 95% RH [2]: about 7.0%
impurities detected at a retention time of 17.527 minutes, increase with respect to standard product (in words) [3]: greatly increased
SMILES: Cc1ccc(-n2nc3c(c2NC(=O)CS(C)(=O)=O)C(=O)N[C@@]2(CCOc4cc(F)cc(F)c42)C3)nc1 [amorphous substance of the compound represented by Formula (]

JP1 solubility [1]: 33.6 µg/mL
TCA/JP2 solubility [1]: 73.6 µg/mL
JP2 solubility [1]: 37.5 µg/mL
SMILES: CS(=O)(=O)CC(=O)Nc1c2c(nn1CCCOC(F)(F)F)CC1(CCOc3cc(OCC(F)(F)F)ccc31)NC2=O (stereo not drawn) [Compound crystal of Formula (II)]

difference in water content between 0% RH and 95% RH [2]: about 1.4%
Moisture adsorption amount ([2]; relative humidity 0.0%): 0.000%
Moisture desorption amount ([2]; relative humidity 0.0%): 0.063%
Moisture adsorption amount ([2]; relative humidity 5.0%): 0.064%
Moisture desorption amount ([2]; relative humidity 5.0%): 0.153%
Moisture adsorption amount ([2]; relative humidity 10.0%): 0.115%
Moisture desorption amount ([2]; relative humidity 10.0%): 0.230%
Moisture adsorption amount ([2]; relative humidity 15.0%): 0.174%
Moisture desorption amount ([2]; relative humidity 15.0%): 0.316%
Moisture adsorption amount ([2]; relative humidity 20.0%): 0.234%
Moisture desorption amount ([2]; relative humidity 20.0%): 0.395%
Moisture adsorption amount ([2]; relative humidity 25.0%): 0.321%
Moisture desorption amount ([2]; relative humidity 25.0%): 0.509%
Moisture adsorption amount ([2]; relative humidity 30.0%): 0.449%
Moisture desorption amount ([2]; relative humidity 30.0%): 0.638%
Moisture adsorption amount ([2]; relative humidity 35.0%): 0.549%
Moisture desorption amount ([2]; relative humidity 35.0%): 0.740%
Moisture adsorption amount ([2]; relative humidity 40.0%): 0.639%
Moisture desorption amount ([2]; relative humidity 40.0%): 0.830%
Moisture adsorption amount ([2]; relative humidity 45.0%): 0.719%
Moisture desorption amount ([2]; relative humidity 45.0%): 0.917%
Moisture adsorption amount ([2]; relative humidity 50.0%): 0.798%
Moisture desorption amount ([2]; relative humidity 50.0%): 0.989%
Moisture adsorption amount ([2]; relative humidity 55.0%): 0.867%
Moisture desorption amount ([2]; relative humidity 55.0%): 1.052%
Moisture adsorption amount ([2]; relative humidity 60.0%): 0.925%
Moisture desorption amount ([2]; relative humidity 60.0%): 1.113%
Moisture adsorption amount ([2]; relative humidity 65.0%): 1.003%
Moisture desorption amount ([2]; relative humidity 65.0%): 1.179%
Moisture adsorption amount ([2]; relative humidity 70.0%): 1.070%
Moisture desorption amount ([2]; relative humidity 70.0%): 1.237%
Moisture adsorption amount ([2]; relative humidity 75.0%): 1.150%
Moisture desorption amount ([2]; relative humidity 75.0%): 1.288%
Moisture adsorption amount ([2]; relative humidity 80.0%): 1.196%
Moisture desorption amount ([2]; relative humidity 80.0%): 1.314%
Moisture adsorption amount ([2]; relative humidity 85.0%): 1.266%
Moisture desorption amount ([2]; relative humidity 85.0%): 1.369%
Moisture adsorption amount ([2]; relative humidity 90.0%): 1.350%
Moisture desorption amount ([2]; relative humidity 90.0%): 1.407%
Moisture adsorption amount ([2]; relative humidity 95.0%): 1.426%
Moisture desorption amount ([2]; relative humidity 95.0%): 1.426%
SMILES: Cc1ccc(-n2nc3c(c2NC(=O)CS(C)(=O)=O)C(=O)N[C@@]2(CCOc4cc(F)cc(F)c42)C3)nc1 [crystal of the compound represented by Formula (I) obtained ]
solid stability (in words) [4]: excellent in solid stability under any conditions
impurities detected at a retention time of 17.527 minutes, increase with respect to standard product (in words) [3]: increase in impurities could be greatly suppressed
